{"source": "patent US20050209339A1", "about": "“Methods for the treatment of sinusitis” (priority 2002, published 2005)", "key": {"[1]": {"system": "ergosterol biosynthesis (squalene epoxidase)", "conditions": "blocks squalene epoxidase; cited from earlier work"}, "[2]": {"system": "molds and dimorphic fungi, pathogenic yeasts of the genera Pityrosporum, Candida and Rhodotorula", "conditions": "many pathogenic yeasts (Pityrosporum, Candida, Rhodotorula); cited from earlier work"}, "chronic rhinosinusitis": {"system": "chronic rhinosinusitis", "assay": "double-blind placebo-controlled clinical trial in chronic rhinosinusitis", "type": "in vivo, human", "conditions": "625 mg terbinafine base equivalent as hydrochloride orally once daily for 6 weeks, versus placebo, patients", "experimental": "A prospective, double-blind, parallel-group, multi-center, placebo-controlled study comparing the safety and efficacy of 625 mg of terbinafine base equivalent as hydrochloride daily, or a molar equivalent in other acid addition salt or free base form, for 6 weeks, versus placebo in the treatment of chronic rhinosinusitis is performed. The study duration is a total of 18 weeks and consists of three periods: a) screening (3 weeks, from week −3 to −1); b) treatment (6 weeks, from baseline of treatment week to week +6); and c) follow-up assessment (9 weeks, from week +7 to +15).\nSixty patients, male and female, between the age of 18 and 65 years, are randomized to receive six weeks of terbinafine therapy or placebo.\nAdditional inclusion criteria for admission to the study is as follows: • Patients with signs and symptoms of chronic non-invasive rhinosinusitis (CRS) for at least 3 months prior to screening. […]"}}, "data": [{"molecule": "CN(C/C=C/C#CC(C)(C)C)Cc1cccc2ccccc12", "note": "[Terbinafine]", "values": [{"measurement": "inhibition of ergosterol biosynthesis", "setting": "[1]", "result": "potent inhibitor"}, {"measurement": "activity in vitro", "setting": "[2]", "result": "active in vitro"}, {"measurement": "efficacy relative to primary (CT total opacification score) and secondary variables", "setting": "chronic rhinosinusitis", "result": "therapeutically effective regimen"}]}]}
